Assay results from the kinase profiling compilation of Christmann-Franck et al. (2016).

What was measured:
Experiment in all cases: KINOMEscan competition binding
Settings in all cases: compound 10.0 µM
EPHA1 (human) = EPHA1 (human) (UniProt P21709)
DAPK1 (human) = DAPK1 (human) (UniProt P53355)
KDR (human) = KDR (human) (UniProt P35968)
PRKX (human) = PRKX (human) (UniProt P51817)
PRKAA2 (human) = PRKAA2 (human) (UniProt P54646)
CRK2 (P.falciparum) = CRK2 (P.falciparum) (UniProt P61075)
FGFR1 (human) = FGFR1 (human) (UniProt P11362)
MAP3K6 (human) = MAP3K6 (human) (UniProt O95382)
MYLK2 (human) = MYLK2 (human) (UniProt Q9H1R3)
TAOK2 (human) = TAOK2 (human) (UniProt Q9UL54)
MAPK14 (human) = MAPK14 (human) (UniProt Q16539)
EIF2AK2 (human) = EIF2AK2 (human) (UniProt P19525)
CDK15 (human) = CDK15 (human) (UniProt Q96Q40)
[1] = test system: RET (human), P07949 [V804L]
IRAK1 (human) = IRAK1 (human) (UniProt P51617)
IRAK1 (human), sequence (P51617 whole entry, looked up): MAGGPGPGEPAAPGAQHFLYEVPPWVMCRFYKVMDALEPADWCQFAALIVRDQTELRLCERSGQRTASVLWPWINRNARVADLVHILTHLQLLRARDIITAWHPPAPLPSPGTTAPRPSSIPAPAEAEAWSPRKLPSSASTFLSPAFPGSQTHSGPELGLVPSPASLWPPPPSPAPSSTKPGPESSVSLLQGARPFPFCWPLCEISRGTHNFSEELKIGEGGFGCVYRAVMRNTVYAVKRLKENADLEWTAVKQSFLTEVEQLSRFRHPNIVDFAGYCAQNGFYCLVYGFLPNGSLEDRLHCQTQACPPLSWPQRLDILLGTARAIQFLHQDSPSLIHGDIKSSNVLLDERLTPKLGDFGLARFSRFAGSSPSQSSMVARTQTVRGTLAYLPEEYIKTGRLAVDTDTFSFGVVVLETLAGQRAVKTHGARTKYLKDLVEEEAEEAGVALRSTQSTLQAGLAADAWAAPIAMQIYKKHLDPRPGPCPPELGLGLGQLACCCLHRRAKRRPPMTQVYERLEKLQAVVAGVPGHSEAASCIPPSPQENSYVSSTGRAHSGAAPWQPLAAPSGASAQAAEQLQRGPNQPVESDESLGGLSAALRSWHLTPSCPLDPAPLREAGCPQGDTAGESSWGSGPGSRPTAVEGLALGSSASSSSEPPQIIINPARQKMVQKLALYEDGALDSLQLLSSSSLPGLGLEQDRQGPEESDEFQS

SRPK3 (human) = SRPK3 (human) (UniProt Q9UPE1)
STK25 (human) = STK25 (human) (UniProt O00506)
MAP3K3 (human) = MAP3K3 (human) (UniProt Q99759)
MAPK6 (human) = MAPK6 (human) (UniProt Q16659)
MAPK6 (human), sequence (Q16659 whole entry, looked up): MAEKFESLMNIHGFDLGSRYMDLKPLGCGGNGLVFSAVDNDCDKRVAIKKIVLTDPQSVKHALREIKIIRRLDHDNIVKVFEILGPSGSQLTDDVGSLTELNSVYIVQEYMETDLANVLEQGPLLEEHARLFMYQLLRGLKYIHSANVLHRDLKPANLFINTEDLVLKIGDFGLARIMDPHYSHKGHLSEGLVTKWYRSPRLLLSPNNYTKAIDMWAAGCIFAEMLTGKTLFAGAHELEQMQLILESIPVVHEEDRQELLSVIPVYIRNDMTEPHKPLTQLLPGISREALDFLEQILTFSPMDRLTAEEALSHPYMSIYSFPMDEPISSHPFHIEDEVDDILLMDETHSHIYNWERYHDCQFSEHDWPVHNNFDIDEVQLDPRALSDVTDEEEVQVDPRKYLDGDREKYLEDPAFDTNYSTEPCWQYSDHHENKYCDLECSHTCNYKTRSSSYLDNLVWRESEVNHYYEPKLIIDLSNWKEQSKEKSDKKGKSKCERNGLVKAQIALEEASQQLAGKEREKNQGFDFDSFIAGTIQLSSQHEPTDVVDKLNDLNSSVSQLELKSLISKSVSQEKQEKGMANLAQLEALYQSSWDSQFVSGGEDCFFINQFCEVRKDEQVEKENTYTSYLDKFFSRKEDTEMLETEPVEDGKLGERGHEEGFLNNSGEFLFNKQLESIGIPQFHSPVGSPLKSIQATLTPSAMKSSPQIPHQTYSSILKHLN

INSR (human) = INSR (human) (UniProt P06213)
MYO3B (human) = MYO3B (human) (UniProt Q8WXR4)
STK17B (human) = STK17B (human) (UniProt O94768)
PIM2 (human) = PIM2 (human) (UniProt Q9P1W9)
MAP2K2 (human) = MAP2K2 (human) (UniProt P36507)
PLK3 (human) = PLK3 (human) (UniProt Q9H4B4)
LYN (human) = LYN (human) (UniProt P07948)
DCLK1 (human) = DCLK1 (human) (UniProt O15075)
MAPK7 (human) = MAPK7 (human) (UniProt Q13164)
YSK4 (human) = YSK4 (human) (UniProt Q56UN5)
RIPK1 (human) = RIPK1 (human) (UniProt Q13546)
ACVR1B (human) = ACVR1B (human) (UniProt P36896)
AKT1 (human) = AKT1 (human) (UniProt P31749)
AKT1 (human), sequence (P31749 whole entry, looked up): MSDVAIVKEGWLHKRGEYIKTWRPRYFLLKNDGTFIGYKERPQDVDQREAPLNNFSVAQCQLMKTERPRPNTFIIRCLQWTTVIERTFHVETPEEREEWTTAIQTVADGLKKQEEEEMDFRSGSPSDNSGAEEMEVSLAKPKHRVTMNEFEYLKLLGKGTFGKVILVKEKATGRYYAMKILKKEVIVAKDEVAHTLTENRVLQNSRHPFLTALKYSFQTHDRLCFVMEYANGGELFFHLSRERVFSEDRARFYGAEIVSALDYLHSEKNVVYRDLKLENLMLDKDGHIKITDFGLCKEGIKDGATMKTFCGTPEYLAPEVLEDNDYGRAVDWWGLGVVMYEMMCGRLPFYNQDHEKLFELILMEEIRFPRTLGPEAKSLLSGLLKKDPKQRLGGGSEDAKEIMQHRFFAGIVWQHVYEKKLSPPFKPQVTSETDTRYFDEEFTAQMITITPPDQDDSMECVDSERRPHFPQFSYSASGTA

CDK16 (human) = CDK16 (human) (UniProt Q00536)
PKN2 (human) = PKN2 (human) (UniProt Q16513)
[2] = test system: EGFR (human), P00533 [746-750 del]
EGFR (human), P00533 [746-750 del], sequence (P00533 whole entry, looked up, stated change not applied): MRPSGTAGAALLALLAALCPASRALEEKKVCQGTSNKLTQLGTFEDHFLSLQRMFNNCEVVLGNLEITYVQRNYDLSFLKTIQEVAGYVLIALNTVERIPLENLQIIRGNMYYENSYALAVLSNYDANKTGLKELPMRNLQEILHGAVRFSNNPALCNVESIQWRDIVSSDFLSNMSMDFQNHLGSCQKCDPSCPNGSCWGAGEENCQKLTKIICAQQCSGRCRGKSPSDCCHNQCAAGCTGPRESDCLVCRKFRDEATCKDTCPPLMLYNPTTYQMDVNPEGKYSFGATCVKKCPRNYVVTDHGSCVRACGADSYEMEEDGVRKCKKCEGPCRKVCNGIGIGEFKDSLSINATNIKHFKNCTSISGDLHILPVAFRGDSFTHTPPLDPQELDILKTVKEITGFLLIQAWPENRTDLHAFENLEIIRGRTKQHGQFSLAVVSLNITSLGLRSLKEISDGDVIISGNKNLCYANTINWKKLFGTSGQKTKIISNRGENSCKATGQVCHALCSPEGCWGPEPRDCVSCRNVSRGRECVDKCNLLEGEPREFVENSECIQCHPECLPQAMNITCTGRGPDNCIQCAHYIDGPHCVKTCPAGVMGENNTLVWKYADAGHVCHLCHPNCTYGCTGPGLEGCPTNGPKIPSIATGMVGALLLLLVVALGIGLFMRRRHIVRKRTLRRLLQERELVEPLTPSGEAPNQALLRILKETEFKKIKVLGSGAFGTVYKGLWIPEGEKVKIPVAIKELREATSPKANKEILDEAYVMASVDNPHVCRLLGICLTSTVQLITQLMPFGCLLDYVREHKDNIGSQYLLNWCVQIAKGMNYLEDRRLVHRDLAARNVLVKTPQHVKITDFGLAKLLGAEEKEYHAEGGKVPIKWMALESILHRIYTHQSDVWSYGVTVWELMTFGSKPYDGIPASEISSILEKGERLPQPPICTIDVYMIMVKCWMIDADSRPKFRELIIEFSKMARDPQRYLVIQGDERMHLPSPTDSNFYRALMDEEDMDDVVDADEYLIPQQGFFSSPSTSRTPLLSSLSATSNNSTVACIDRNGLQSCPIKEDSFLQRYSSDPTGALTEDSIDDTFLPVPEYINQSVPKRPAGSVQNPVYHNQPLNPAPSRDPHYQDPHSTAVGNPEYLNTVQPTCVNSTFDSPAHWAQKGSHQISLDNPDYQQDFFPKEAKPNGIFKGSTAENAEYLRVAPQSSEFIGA

PDPK1 (human) = PDPK1 (human) (UniProt O15530)
EPHA6 (human) = EPHA6 (human) (UniProt Q9UF33)
PRKCD (human) = PRKCD (human) (UniProt Q05655)
MERTK (human) = MERTK (human) (UniProt Q12866)
[3] = test system: FLT3 (human), P36888 [K663Q]
CASK (human) = CASK (human) (UniProt O14936)
CASK (human), sequence (O14936 whole entry, looked up): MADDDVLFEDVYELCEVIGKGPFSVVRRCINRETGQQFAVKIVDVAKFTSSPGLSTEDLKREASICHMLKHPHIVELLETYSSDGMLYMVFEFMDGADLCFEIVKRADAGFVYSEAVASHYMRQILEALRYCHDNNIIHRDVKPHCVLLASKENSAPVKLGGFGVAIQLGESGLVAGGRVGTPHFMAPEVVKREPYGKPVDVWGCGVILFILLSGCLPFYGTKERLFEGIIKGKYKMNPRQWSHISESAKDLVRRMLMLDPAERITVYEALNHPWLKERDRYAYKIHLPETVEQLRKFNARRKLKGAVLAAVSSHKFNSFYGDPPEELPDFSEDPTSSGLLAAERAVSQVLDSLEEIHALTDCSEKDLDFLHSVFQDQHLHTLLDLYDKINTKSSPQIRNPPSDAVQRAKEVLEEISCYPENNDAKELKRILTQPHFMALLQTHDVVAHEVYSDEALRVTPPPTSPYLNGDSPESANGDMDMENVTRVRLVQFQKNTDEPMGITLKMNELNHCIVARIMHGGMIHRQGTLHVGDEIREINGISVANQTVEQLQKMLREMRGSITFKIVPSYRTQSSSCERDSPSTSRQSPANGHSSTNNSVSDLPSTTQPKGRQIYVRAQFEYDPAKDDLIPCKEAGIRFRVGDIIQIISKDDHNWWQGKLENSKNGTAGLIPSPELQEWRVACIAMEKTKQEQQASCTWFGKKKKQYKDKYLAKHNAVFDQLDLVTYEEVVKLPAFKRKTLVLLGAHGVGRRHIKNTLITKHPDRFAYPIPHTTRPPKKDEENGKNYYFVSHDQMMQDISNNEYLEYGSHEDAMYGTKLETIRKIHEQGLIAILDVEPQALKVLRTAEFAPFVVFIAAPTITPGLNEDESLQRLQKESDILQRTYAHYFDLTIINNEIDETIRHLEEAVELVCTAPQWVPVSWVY

ACVRL1 (human) = ACVRL1 (human) (UniProt P37023)
ACVRL1 (human), sequence (P37023 whole entry, looked up): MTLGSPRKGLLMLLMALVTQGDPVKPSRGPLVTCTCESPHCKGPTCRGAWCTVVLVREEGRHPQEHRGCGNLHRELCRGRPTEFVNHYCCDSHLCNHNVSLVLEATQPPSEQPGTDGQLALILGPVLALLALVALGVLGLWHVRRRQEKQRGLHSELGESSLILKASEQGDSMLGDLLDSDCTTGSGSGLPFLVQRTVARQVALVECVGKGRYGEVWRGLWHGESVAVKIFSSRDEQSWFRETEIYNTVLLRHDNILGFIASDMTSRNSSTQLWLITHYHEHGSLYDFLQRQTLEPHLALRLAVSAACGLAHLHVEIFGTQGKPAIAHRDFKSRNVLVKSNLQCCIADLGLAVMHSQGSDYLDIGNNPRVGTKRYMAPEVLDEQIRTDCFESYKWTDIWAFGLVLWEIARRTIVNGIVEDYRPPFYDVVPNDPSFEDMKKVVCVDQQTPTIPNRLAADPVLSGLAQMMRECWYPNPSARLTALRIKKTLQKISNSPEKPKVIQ

PRKX (human), sequence (P51817 whole entry, looked up): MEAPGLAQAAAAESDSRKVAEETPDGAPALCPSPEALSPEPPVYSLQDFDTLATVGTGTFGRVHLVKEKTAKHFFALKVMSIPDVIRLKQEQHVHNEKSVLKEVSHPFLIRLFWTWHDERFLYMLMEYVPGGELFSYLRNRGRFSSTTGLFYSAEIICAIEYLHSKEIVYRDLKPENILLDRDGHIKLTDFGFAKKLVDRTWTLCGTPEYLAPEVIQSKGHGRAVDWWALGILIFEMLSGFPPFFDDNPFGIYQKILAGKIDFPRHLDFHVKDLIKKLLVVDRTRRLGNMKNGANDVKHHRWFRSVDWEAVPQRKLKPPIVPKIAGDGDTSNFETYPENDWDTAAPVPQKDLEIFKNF

## Cc1cc([C@@H](C)Nc2ccccc2C(=O)O)c2nc(N3CCOCC3)cc(=O)n2c1
EPHA1 (human)
  kinase still bound, per cent of control: 100%
DAPK1 (human)
  kinase still bound, per cent of control: 100%
KDR (human)
  kinase still bound, per cent of control: 100%
PRKX (human)
  kinase still bound, per cent of control: 100%
PRKAA2 (human)
  kinase still bound, per cent of control: 91%
CRK2 (P.falciparum)
  kinase still bound, per cent of control: 92%
FGFR1 (human)
  kinase still bound, per cent of control: 97%
MAP3K6 (human)
  kinase still bound, per cent of control: 94%
MYLK2 (human)
  kinase still bound, per cent of control: 94%
TAOK2 (human)
  kinase still bound, per cent of control: 89%
MAPK14 (human)
  kinase still bound, per cent of control: 100%
EIF2AK2 (human)
  kinase still bound, per cent of control: 100%
CDK15 (human)
  kinase still bound, per cent of control: 100%
[1]
  kinase still bound, per cent of control: 100%
IRAK1 (human)
  kinase still bound, per cent of control: 100%
SRPK3 (human)
  kinase still bound, per cent of control: 83%
STK25 (human)
  kinase still bound, per cent of control: 100%
MAP3K3 (human)
  kinase still bound, per cent of control: 77%
MAPK6 (human)
  kinase still bound, per cent of control: 78%
INSR (human)
  kinase still bound, per cent of control: 79%
MYO3B (human)
  kinase still bound, per cent of control: 51%
STK17B (human)
  kinase still bound, per cent of control: 100%
PIM2 (human)
  kinase still bound, per cent of control: 83%
MAP2K2 (human)
  kinase still bound, per cent of control: 98%
PLK3 (human)
  kinase still bound, per cent of control: 94%
LYN (human)
  kinase still bound, per cent of control: 89%
DCLK1 (human)
  kinase still bound, per cent of control: 100%
MAPK7 (human)
  kinase still bound, per cent of control: 100%
YSK4 (human)
  kinase still bound, per cent of control: 100%
RIPK1 (human)
  kinase still bound, per cent of control: 100%
ACVR1B (human)
  kinase still bound, per cent of control: 100%
AKT1 (human)
  kinase still bound, per cent of control: 100%
CDK16 (human)
  kinase still bound, per cent of control: 100%
PKN2 (human)
  kinase still bound, per cent of control: 74%
[2]
  kinase still bound, per cent of control: 100%
PDPK1 (human)
  kinase still bound, per cent of control: 100%
EPHA6 (human)
  kinase still bound, per cent of control: 100%
PRKCD (human)
  kinase still bound, per cent of control: 100%
MERTK (human)
  kinase still bound, per cent of control: 100%
[3]
  kinase still bound, per cent of control: 15%
CASK (human)
  kinase still bound, per cent of control: 100%
ACVRL1 (human)
  kinase still bound, per cent of control: 100%
